Assay results taken from ChEMBL document CHEMBL1201862, “PubChem BioAssay data set” (2004).
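Assay format: 96-well plates, 48-hour exposure. GI50 = concentration required for 50% inhibition of growth.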 Activity calls are given as the source filed them. Rule as the data show it: active = GI50 up to about 1.1 µM and inactive = higher.

Assays:
Test in all cases: DTP human tumour cell line panel, 48 h
[1] = test system: DLD-1
[2] = test system: DMS-114
[3] = test system: DMS-273
[4] = test system: HOP-18
[5] = test system: LXFL 529
[6] = test system: M19-MEL
[7] = test system: XF498
[8] = test system: SNB-78
[9] = test system: RXF 631

Measured: GI50

O=S(=O)(O)C(F)(F)C(F)(F)C(F)(F)C(F)(F)F
inactive: [1] > 100 µM | [2] > 100 µM | [3] > 100 µM | [4] > 100 µM | [5] > 100 µM | [6] > 100 µM | [7] > 100 µM

Cc1cc2c(C)n(Cc3ccccc3Cl)nc2c(C(=O)O)c1C
inactive: [1] > 100 µM | [3] > 100 µM | [4] > 100 µM | [5] > 100 µM | [6] > 100 µM | [8] > 100 µM | [7] > 100 µM

O=C1c2ccccc2C2C1N2C(=O)C(F)(F)F (configuration not stated)
inactive: [1] > 100 µM | [2] 39.9 µM | [3] > 100 µM | [4] > 100 µM | [5] > 100 µM | [6] > 100 µM | [9] 94.6 µM | [7] > 100 µM

CC(C)C(=S)N(C)O
inactive: [1] 2.73 µM | [2] 2.43 µM | [5] 2.39 µM | [6] 11.4 µM | [9] 11.7 µM | [8] 61.2 µM

CCOC(=O)C[C@@H](C)[C@]1(C(=O)OC)CCCC1=O
inactive: [1] > 47.2 µM | [2] > 44.4 µM | [3] > 70.6 µM | [4] > 100 µM | [5] > 100 µM | [6] > 100 µM | [8] > 100 µM | [7] > 100 µM

COC(=O)CC1NC(=O)C1C(C)(OC)OC (configuration not stated)
inactive: [1] > 100 µM | [2] > 100 µM | [3] > 100 µM | [5] > 100 µM | [6] > 100 µM | [9] > 100 µM | [7] > 100 µM

CC(=O)OC1COC(Nc2ccc(C(C)=O)cc2)C(OC(C)=O)C1OC(C)=O (configuration not stated)
inactive: [1] > 100 µM | [2] > 100 µM | [3] > 100 µM | [4] > 100 µM | [5] > 100 µM | [6] > 100 µM | [9] > 100 µM | [8] > 100 µM

COc1ccc(/C=N/NC(=O)C2=C(N)N(c3ccccc3)C(=C(C#N)C#N)S2)cc1
inactive: [1] > 100 µM | [4] > 100 µM | [5] > 100 µM | [6] > 100 µM

Cc1ccc(S(=O)(=O)OCCn2cnc3nc(NC(=O)c4ccccc4)[nH]c(=O)c32)cc1
inactive: [1] > 100 µM | [2] > 100 µM | [3] > 100 µM | [4] > 100 µM | [5] 94.6 µM | [6] > 100 µM | [8] > 100 µM

O=C(NC(=O)c1cn(CCN2CCN(C(=O)NCCCCCCNC(=O)N3CCN(CCn4cc(C(=O)NC(=O)OCc5ccccc5)c(=O)[nH]c4=O)CC3)CC2)c(=O)[nH]c1=O)OCc1ccccc1
inactive: [1] > 100 µM | [2] > 100 µM | [3] > 100 µM | [4] > 100 µM | [6] > 100 µM | [9] > 100 µM | [8] > 100 µM

CCOC(=O)C1=C(OC(OCC)C(CC)[Se]c2ccccc2)CCCC1 (configuration not stated)
inactive: [1] 17.5 µM | [3] 15.1 µM | [4] 29.7 µM | [5] 20.5 µM | [6] 15.6 µM | [9] 10.2 µM | [8] 22.3 µM | [7] 20 µM

CC(=O)O/N=C/c1ncccc1OC(C)=O
inactive: [1] > 100 µM | [2] > 100 µM | [3] > 100 µM | [4] > 100 µM | [5] > 100 µM | [6] > 100 µM | [9] > 100 µM | [7] > 100 µM

COC1OC2COC(c3ccccc3)OC2C(O)C1Br (configuration not stated)
inactive: [1] > 100 µM | [3] > 100 µM | [4] > 100 µM | [5] > 100 µM | [6] > 100 µM | [8] > 100 µM | [7] > 100 µM

CC1=C(c2ccccc2)CON(c2ccccc2)C1
inactive: [2] 31 µM | [5] 29.1 µM | [6] 38.7 µM | [9] 24.8 µM | [8] 39.9 µM | [7] 40.6 µM

O=C1c2ccccc2C(=O)N1C/C=C/CO
inactive: [1] > 100 µM | [2] > 100 µM | [3] > 100 µM | [4] > 100 µM | [5] > 100 µM | [6] > 100 µM | [8] > 100 µM

C1=CC=C2NCCC/N=C3/C=CC=CC=C3NCCC/N=C\2C=C1
inactive: [1] > 100 µM | [2] > 100 µM | [3] > 100 µM | [5] > 100 µM | [6] > 100 µM | [9] > 100 µM | [8] > 100 µM | [7] > 100 µM

Cc1cc2c(=O)cc(-c3ccc(Cl)cc3Cl)oc2c(C(=O)O)c1C
inactive: [1] > 100 µM | [2] > 100 µM | [4] > 100 µM | [5] > 100 µM | [8] > 100 µM | [7] > 100 µM

O=C1CC2Sc3ccccc3N=C2N1c1ccc(Cl)cc1Cl (configuration not stated)
inactive: [1] 32.7 µM | [2] 33 µM | [4] > 100 µM | [5] 84.9 µM | [6] 50 µM | [9] 65.3 µM | [8] 65.8 µM | [7] > 100 µM

CC(=O)Nc1ccc(C(=O)N2N=C(C)/C(=C/c3cccc([N+](=O)[O-])c3)C2=O)cc1
inactive: [1] > 100 µM | [2] > 100 µM | [3] > 100 µM | [4] > 100 µM | [6] > 100 µM | [8] > 100 µM

COc1cc(/C=C2\[C@H]3c4c(c(OC)c(C)c(OC)c4OC)CC(C(=O)N2Cc2ccccc2)N3C)c(OC)c(C)c1OC
inactive: [1] 47.5 µM | [3] 15.5 µM | [4] 23.7 µM | [5] 19.4 µM | [6] 17.4 µM

C=C(C=O)CCCC(C)[C@@H]1CCC23CC12CCC1[C@@]2(C)CCC(OC(C)=O)C(C)(C)C2CC(OC2OC(COC(C)=O)C(O)C(O)C2O)[C@]13C (some centres not stated)
inactive: [3] 5.82 µM | [4] 9.64 µM | [5] 2.66 µM | [8] 1.14 µM

COC(=O)[C@@H]1C(=O)O[C@@H](c2ccc(OC)c(OC)c2OC)[C@@H]1C(=O)OC.COC(=O)[C@H]1C(=O)O[C@@H](c2ccc(OC)c(OC)c2OC)[C@@H]1C(=O)OC
inactive: [1] > 100 µM | [2] > 100 µM | [3] > 100 µM | [5] > 100 µM | [6] > 100 µM | [9] > 100 µM | [8] > 100 µM | [7] > 100 µM

CN1N=C2c3ccccc3CC[C@H]2C1c1cccc(O)c1 (some centres not stated)
inactive: [1] > 100 µM | [2] > 100 µM | [3] > 100 µM | [5] 99.5 µM | [6] > 100 µM | [7] > 100 µM

COC1CC2C3/C(=N/Nc4ccc([N+](=O)[O-])cc4[N+](=O)[O-])CCC2(C)C3C1 (configuration not stated)
inactive: [1] > 10 µM | [2] > 100 µM | [3] > 10 µM | [4] > 10 µM | [5] > 10 µM | [6] > 10 µM | [7] > 100 µM

CCCCCCCC[N+](C)(C)Cc1ccc(C[N+](C)(C)CCCCCCCC)cc1
inactive: [1] 35.4 µM | [2] 8.67 µM | [3] 3.84 µM | [4] > 100 µM | [5] 14.6 µM | [6] 31.3 µM | [9] > 100 µM | [8] 44.3 µM

O=C(O)CCCNS(=O)(=O)c1ccccc1
inactive: [1] > 100 µM | [3] > 100 µM | [4] > 100 µM | [5] > 100 µM | [6] > 100 µM | [7] 69.3 µM
